Laboratory results published in paper PMC9189076 (Oncogene, 2022).
Values belong to the compound of their own block, whether it stands above or below them.

Tests used:
[1] = tested on: H3K4me2; assay: Global histone methylation immunoblotting in MV4; type: cell-based, human; conditions: MV4;11 cells, 0.5 μM, 4 days
[2] = molecular target: T1, WDR5 (Homo sapiens, UniProt P61964); assay: Isothermal titration calorimetry; type: binding; conditions: for binding to WDR5 (ITC, in words): MS169 compared to MS40
[3] = molecular target: T1, WDR5; conditions: five lines of MLL-r AML and eight lines of breast cancer, 18 h
[4] = molecular target: CRBN's C-terminal thalidomide binding domain (CRBN-TBD) (Homo sapiens, UniProt Q96SW2); assay: ITC, binding to CRBN thalidomide-binding domain
Sequence of CRBN's C-terminal thalidomide binding domain (CRBN-TBD) (Q96SW2 318-426 limits assumed): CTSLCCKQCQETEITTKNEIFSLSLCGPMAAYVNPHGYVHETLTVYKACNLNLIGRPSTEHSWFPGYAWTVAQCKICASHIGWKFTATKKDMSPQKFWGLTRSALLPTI

[5] = tested on: MV4;11 cells; assay: RNA-seq transcriptomic profiling in MV4; type: cell-based, human
[6] = Compound concentrations in plasma and tumor of PDX-bearing mice; type: in vivo, NSG-SGM3 mice; conditions: two hours post last dose; MS40 100 mg/kg, MS169 34 mg/kg, MS40N2 100 mg/kg
[7] = tested on: IKZF1 and IKZF3; assay: IKZF1/IKZF3 degradation by immunoblotting in cells; type: cell-based, human; conditions: MV4;11, RS4;11 and other cell lines
[8] = tested on: MLL-AF9 + AML PDX tumors; assay: MLL-AF9+ AML PDX subcutaneous xenograft efficacy; type: in vivo, NSG-SGM3 mice; conditions: i.p. once a day, 5 days per week; MS40 100 mg/kg, MS169 34 mg/kg, MS40N2 100 mg/kg
[9] = molecular target: VHL–Elongin C–Elongin B ternary complex (VCB) (Homo sapiens, UniProt P40337); assay: ITC, binding to VHL E3 ligase complex; conditions: compared to MS40
Sequence of VHL–Elongin C–Elongin B ternary complex (VCB) (P40337 54-213 limits assumed): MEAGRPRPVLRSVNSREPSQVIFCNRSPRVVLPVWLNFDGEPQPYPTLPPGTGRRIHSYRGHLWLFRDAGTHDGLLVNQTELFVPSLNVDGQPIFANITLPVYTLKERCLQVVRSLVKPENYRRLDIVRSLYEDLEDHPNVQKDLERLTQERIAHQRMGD
Sequence of VHL–Elongin C–Elongin B ternary complex (VCB) (Q15369 17-112 partner limits assumed): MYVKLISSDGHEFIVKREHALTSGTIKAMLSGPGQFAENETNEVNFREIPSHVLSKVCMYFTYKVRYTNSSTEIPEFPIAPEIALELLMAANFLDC
Sequence of VHL–Elongin C–Elongin B ternary complex (VCB) (Q15370 1-104 partner limits assumed): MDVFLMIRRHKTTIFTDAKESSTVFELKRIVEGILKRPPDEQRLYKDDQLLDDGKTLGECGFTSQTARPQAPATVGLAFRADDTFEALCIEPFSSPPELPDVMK

[10] = molecular target: LIMD1 (Homo sapiens, UniProt Q9UGP4); assay: LIMD1 degradation by immunoblotting in MV4; type: cell-based; conditions: MV4;11 and RS4;11 cells, 0.5 μM, 18 h
Sequence of LIMD1 (Q9UGP4 whole entry): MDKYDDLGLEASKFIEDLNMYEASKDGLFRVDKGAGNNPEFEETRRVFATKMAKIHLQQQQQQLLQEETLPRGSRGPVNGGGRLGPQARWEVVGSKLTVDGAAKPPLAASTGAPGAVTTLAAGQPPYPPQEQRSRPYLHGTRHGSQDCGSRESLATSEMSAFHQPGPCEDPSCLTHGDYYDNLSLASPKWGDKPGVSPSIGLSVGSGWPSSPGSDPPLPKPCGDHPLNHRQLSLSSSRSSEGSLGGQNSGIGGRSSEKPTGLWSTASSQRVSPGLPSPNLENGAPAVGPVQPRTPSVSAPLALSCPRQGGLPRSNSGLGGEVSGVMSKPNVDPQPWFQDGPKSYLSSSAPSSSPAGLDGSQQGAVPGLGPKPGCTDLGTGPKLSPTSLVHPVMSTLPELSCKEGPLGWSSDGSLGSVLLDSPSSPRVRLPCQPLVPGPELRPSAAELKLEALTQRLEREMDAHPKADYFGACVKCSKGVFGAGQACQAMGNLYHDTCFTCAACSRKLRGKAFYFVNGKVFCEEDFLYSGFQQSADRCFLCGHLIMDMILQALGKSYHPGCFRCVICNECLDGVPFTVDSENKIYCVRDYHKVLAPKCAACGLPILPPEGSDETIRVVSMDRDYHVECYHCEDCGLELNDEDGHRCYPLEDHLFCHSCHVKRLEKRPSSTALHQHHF

[11] = molecular target: CRBN-TBD; conditions: read-out: KD, affinity to CRBN-TBD; cited from earlier work
[12] = tested on: BT549 and SUM149 breast cancer cells; assay: Anti-proliferative effect in breast cancer cells; type: cell-based; conditions: MS40 relative to MS40N1 and OICR-9429

SMILES: CN1CCN(c2ccc(-c3cccc(CN4CCN(CCNC(=O)CCCCCCCNc5cccc6c5C(=O)N(C5CCC(=O)N(C)C5=O)C6=O)CC4)c3)cc2NC(=O)c2c[nH]c(=O)cc2C(F)(F)F)CC1 (stereo not shown) [MS40N1]
global H3K4me2 level [1]: but not OICR-9429 or MS40N1
fold lower binding affinity to WDR5 compared to OICR-9429 ([2]; ITC): 4 fold
Kd ([2]; read-out: KD, binding affinity to WDR5, ITC, 25 °C, mean ± SD of three experiments): 130 ± 1 nM
WDR5 degradation in panel of cell lines [3]: did not induce notable WDR5 reduction
KD, affinity to CRBN-TBD ([4]; 25 °C, mean ± SD): no binding was observed
gene-expression changes compared to DMSO (RNA-seq) [5]: did not result in significant gene-expression changes

SMILES: O=C(CCCCCCCNc1cccc2c1C(=O)N(C1CCC(=O)NC1=O)C2=O)NCCN1CCN(Cc2cccc(-c3ccc(N4CCOCC4)c(NC(=O)c4c[nH]c(=O)cc4C(F)(F)F)c3)c2)CC1 (stereo not shown) [MS40N2]
binding to WDR5 (ITC, in words) [2]: not bind WDR5
detected concentrations in plasma and tumor samples post-treatment [6]: higher than those of MS40
IKZF1/IKZF3 degradation (immunoblot) [7]: induced degradation of IKZF1 and IKZF3
binding to CRBN (ITC, in words) [4]: bind CRBN with a similar affinity as MS40
PDX tumor growth compared to vehicle [8]: no detected inhibitory effects on PDX tumor growth

detected concentrations in plasma and tumor samples post-treatment [6]: higher than those of MS40
SMILES: Cc1ncsc1-c1ccc(CNC(=O)[C@@H]2C[C@@H](O)CN2C(=O)[C@@H](NC(=O)CCCCCCCCCC(=O)NCCN2CCN(Cc3cccc(-c4ccc(N5CCN(C)CC5)c(NC(=O)c5c[nH]c(=O)cc5C(F)(F)F)c4)c3)CC2)C(C)(C)C)cc1 [MS169]
binding to WDR5 (ITC, in words) [2]: comparable binding affinities to WDR5 and E3 ligase
binding to E3 ligase (ITC, in words) [9]: comparable binding affinities to WDR5 and E3 ligase
IKZF1/IKZF3 degradation (immunoblot) [7]: without affecting IKZF1/3
PDX tumor growth compared to vehicle [8]: no detected inhibitory effects on PDX tumor growth

SMILES: CN1CCN(c2ccc(-c3cccc(CN4CCOCC4)c3)cc2NC(=O)c2c[nH]c(=O)cc2C(F)(F)F)CC1 [OICR-9429]
global H3K4me2 level [1]: but not OICR-9429 or MS40N1

LIMD1 degradation (immunoblot) [10]: but not LIMD1
SMILES: Nc1cccc2c1C(=O)N(C1CCC(=O)NC1=O)C2=O (stereo not shown) [pomalidomide]
global H3K4me2 level [1]: did not affect global H3K4me2
Kd [11]: 16 ± 4 µM
IKZF1/IKZF3 degradation (immunoblot) [7]: led to degradation of IKZF1/3
anti-proliferative effect in BT549 and SUM149 [12]: unaffected
